One assay addresses ClpP1P2 (Mycobacterium tuberculosis (strain ATCC 25618 / H37Rv), UniProt P9WPC3+P9WPC5). As to the kind of experiment: in vitro assay to detect presence of AMC directly proportional to the activity of ClpP1P2. GHDDI collaboration. In kind it is functional.
For the next assay, the system named is Plasmodium falciparum. As to the kind of experiment: Calibr Malaria Delayed Death Assay SOP. In kind it is functional, organism-based. Conditions: for IC50: Plasmodium falciparum.
Assay [1] can be described thus: microbe, parasite or virus in culture. Conditions: Mycobacterium tuberculosis, 96 h, read-out: pIC50 (converted).
A short description of assay [2]: microbe, parasite or virus in culture. Conditions: Mycobacterium tuberculosis, 72 h, read-out: pIC50 (converted).

Chain of ClpP1P2 (P9WPC5 whole entry): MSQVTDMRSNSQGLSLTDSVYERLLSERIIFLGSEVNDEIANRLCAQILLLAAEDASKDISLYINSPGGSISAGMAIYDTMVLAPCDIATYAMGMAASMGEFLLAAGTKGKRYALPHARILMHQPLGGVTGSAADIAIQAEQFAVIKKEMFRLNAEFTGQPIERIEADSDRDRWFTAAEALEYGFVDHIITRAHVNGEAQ
Chain of ClpP1P2 (P9WPC3 whole entry): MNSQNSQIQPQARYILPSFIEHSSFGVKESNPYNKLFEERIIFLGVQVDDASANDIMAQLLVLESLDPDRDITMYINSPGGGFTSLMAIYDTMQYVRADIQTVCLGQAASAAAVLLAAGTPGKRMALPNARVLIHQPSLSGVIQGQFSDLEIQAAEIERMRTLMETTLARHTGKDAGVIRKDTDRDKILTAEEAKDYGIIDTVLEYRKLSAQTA

Consider `O=C1CNc2ncnc(NCc3cccs3)c2N1`, for which, at ClpP1P2, the IC50 is > 100 µM.
Same read-out and setting: the value for `Cc1ccc(NC2CCN(C(=O)c3ccoc3C)CC2)nn1` was > 100 µM; that for `N#Cc1cccnc1N1CCC(C2CCCCCN2C(N)=O)CC1` (centres undefined) was > 100 µM; that for `CN1C(=O)c2cccc(NC(=O)c3ccc4c(c3)OCCO4)c2C1=O` was > 100 µM.
On the same count and under the same terms, the value for `Cc1nc(CN2CCN(C(=O)c3sccc3C)CC2)cs1` was > 100 µM.
Consider `CC(=O)N1CCC(c2cnc(NC3CCOCC3)cn2)CC1`, for which the IC50 on ClpP1P2 was > 100 µM.
For the compound `CCOc1cc(/C=C/c2ncc(C(=O)O)s2)cc(Br)c1OC`, the IC50 at ClpP1P2 was > 100 µM.
As a reminder, the pIC50 is the IC50 on a negative log10 scale, so that one unit is a factor of ten. Read a low pIC50 as a high IC50. The compound `Cc1nc(-c2cc(Cl)cc3c2OC(CN)C3)c[nH]1` (centres undefined) showed a pIC50 in the assay on Plasmodium falciparum of 6.207. Further, the IC50 with Plasmodium falciparum was 0.655 µM; in assay [1] it was > 50.1 µM; in assay [2], 13.6 µM.
`CCc1nc(C2CCCN(C(=O)CC3CCOCC3)C2)no1` (centres undefined): at ClpP1P2, the IC50 was > 100 µM.
On the same count and under the same terms, the value for `Cc1nc(C)n(CC2CCCN(CCC(=O)NC3CCCCC3)C2)n1` (centres undefined) was > 100 µM.
Same read-out and setting: the value for `CCOC1CCN(C(=O)NCCc2ccn(-c3ccccc3)n2)CC1` was > 100 µM; that for `Nc1nccnc1C(=O)NCCCNc1ccc(C(F)(F)F)cn1` was > 100 µM; that for `CCC(=O)NC1CCCN(c2cncc(OCc3ccccc3)n2)C1` (centres undefined) was > 100 µM.
Same read-out and setting: the value for `O[C@@H]1C[C@H]2CN(Cc3ccccc3)[C@H](Cc3ccccc3)CN2C1` was > 100 µM; that for `N#Cc1ccc(OC[C@]23COC[C@H]2CN(Cc2ccoc2)C3)nc1` was > 100 µM; that for `CN1CCc2c(C#N)c(NCc3ccncc3)n3cnnc3c2C1` was > 100 µM.
As for `Cn1cnc2c1CCN(Cc1csc(-c3ccsc3)n1)C2`, the IC50 at ClpP1P2 is > 100 µM.
Regarding `CNC(=O)c1cc2c(nc1NCC1CC1)CCN(c1ccncn1)CC2`, the IC50 on ClpP1P2 was > 100 µM.
For the compound `COc1ccccc1Cc1cncc(N2CC(C(=O)O)C2)n1`, the IC50 at ClpP1P2 was > 100 µM.
Regarding `Cn1cc(CCC(=O)N2CCCN(c3ncccc3C#N)CC2)cn1`, at ClpP1P2, the IC50 is > 100 µM.
Still for that read-out and setting: the value for `O=C(c1c2c(NCC3CC3)ncnc2n2ccccc12)N1CCOCC1` was > 100 µM.
Regarding `CCOc1ccc(Cl)c(C(=O)N(C)C)n1`, the IC50 on ClpP1P2 was > 100 µM.
On the same count and under the same terms, the value for `Cn1ncc2c1CCCN(C(=O)C1CCCC1)C2` was > 100 µM; that for `Cc1cnn(CC2CCCN2C(=O)c2nccnc2N)c1` (centres undefined) was > 100 µM.
The same measure, in the same setting: the value for `Cc1ccc(C#N)c(N2CCC3(CCCN(C4CCOCC4)C3=O)C2)n1` (centres undefined) was > 100 µM; that for `CC(=O)N(Cc1ncc(C)o1)C1CCN(Cc2cc(C)on2)C1` (centres undefined) was > 100 µM.
On the same count and under the same terms, the value for `Cc1cnn(CCNc2cnc3ccccc3n2)c1` was > 100 µM.
Regarding `O=C1CN(c2cc(-c3ccccc3F)nc3ccnn23)CCCN1`, the IC50 on ClpP1P2 was > 100 µM.
Same read-out and setting: the value for `CC(C)n1c2ccccc2c2c1cc(C(=O)NC1CC1)n2C(=O)N(C)C` was > 100 µM.
Same read-out and setting: the value for `CC(Cn1cccn1)NC(=O)NCc1ccoc1` (centres undefined) was > 100 µM.
The same measure, in the same setting: the value for `O=C(c1cncc(NCC2COc3ccccc3C2)n1)N1CCCC1` (centres undefined) was > 100 µM; that for `O=C1C(Nc2ccc3nccnc3n2)CCN1c1ccccc1` (centres undefined) was > 100 µM.
For `Cc1cccc(CN(C(=O)NCc2ccccn2)C2CC2)c1`, on ClpP1P2, the IC50 was > 100 µM.
Regarding `COCC(=O)N1CCC(c2cc3nc(C)cc(C(F)(F)F)n3n2)CC1`, the IC50 at ClpP1P2 is > 100 µM.
Same read-out and setting: the value for `c1ccc(O[C@H]2C[C@@H]3CN(Cc4cnccn4)C[C@@H]3C2)cc1` was > 100 µM.
For `COCC(C)N1CCc2onc(-c3ccc(C(F)(F)F)cc3)c2C1` (centres undefined), at ClpP1P2, the IC50 is > 100 µM.
Consider `Cc1csc2ncc(-c3ccnc(N4CCCC[C@@H]4CO)n3)c(=O)n12`, for which the IC50 at ClpP1P2 was > 100 µM.
Still for that read-out and setting: the value for `CSc1ccc(CNc2n[nH]c(C)n2)cc1` was > 100 µM.
With `CCSc1ncc(-c2cc(C3CC3)nc(N)c2C#N)cn1`, the IC50 at ClpP1P2 was > 100 µM.
Regarding `c1ccc(C2CN(C3CC3)CC3(CCN(Cc4cscn4)CC3)C2)cc1` (centres undefined), in the assay with Plasmodium falciparum, the pIC50 was 6.129. Besides, the IC50 in the assay on Plasmodium falciparum was 0.969 µM; in assay [1] it was 25.7 µM; in assay [2], 26.1 µM.
The compound `Cc1cc(Cc2cccc(C(F)(F)F)c2)cc(C2CCCNC2)n1` (centres undefined) came in with a pIC50 in the assay with Plasmodium falciparum of 6.047. The IC50 with Plasmodium falciparum is 1.12 µM; in assay [1], 37.9 µM; in assay [2] it was 25.3 µM.
For the compound `CCOc1cccc(CN2CCCC(Nc3ccc(F)cc3)C2)c1O` (centres undefined), the pIC50 in the assay on Plasmodium falciparum is listed as 6.217. Further, the IC50 is 0.577 µM in the assay with Plasmodium falciparum and 46.1 µM in assay [1].
The compound `O=C(CCN1CCCC(CO)(CC2CC2)C1)NCc1cccc(Cl)c1` (centres undefined) came in with a pIC50 in the assay with Plasmodium falciparum of 5.764. Moreover, the results for the IC50 (in the assay on Plasmodium falciparum; in assay [1]; in assay [2]) were 1.32 µM, > 50.1 µM and > 50.1 µM, respectively.
In turn, `Oc1ccc(Cl)cc1CNCc1cccc(C(F)(F)F)c1` yielded a negative-log IC50 (pIC50) in the assay on Plasmodium falciparum of 6.177. Further, the IC50 is 0.653 µM in the assay with Plasmodium falciparum, 29.1 µM in assay [1] and 43.2 µM in assay [2].
In the same order, the values of `Cc1cnn(CCCNCc2csc(COc3ccccc3)n2)c1` are 6.021, 0.828 µM, 11.4 µM and 27.8 µM.
Compound `CCCn1ccnc1CN1CCCC1c1ccccn1` (centres undefined) yielded a negative-log IC50 (pIC50) in the assay with Plasmodium falciparum of 6.456. The IC50 in the assay with Plasmodium falciparum was 0.395 µM; in assay [1], > 50.1 µM; in assay [2], > 50.1 µM.
In the assay with Plasmodium falciparum, `CC1CCCCN1C(=O)c1coc(COc2cccc3cnccc23)n1` (centres undefined) displayed a negative logarithm of the IC50 (pIC50) of 6.214. Also, the IC50 is 0.616 µM with Plasmodium falciparum, 24.4 µM in assay [1] and 44 µM in assay [2].
In the case of `Cl.Cl.Clc1cccc(C[C@@H]2NCCC[C@@H]2Nc2ccccc2)c1`, the negative logarithm of the IC50 (pIC50) in the assay with Plasmodium falciparum amounted to 6.034. Also, the values for the IC50 (with Plasmodium falciparum; in assay [1]; in assay [2]) were 0.789 µM, 16 µM and 12 µM, respectively.
As to `COCCN(C)Cc1cc(Cl)ccc1OCC(O)CN1CCCCCC1` (centres undefined), in the assay with Plasmodium falciparum, the pIC50 is given as 6.019. Moreover, the IC50 in the assay with Plasmodium falciparum was 0.953 µM; in assay [1], 12.4 µM; in assay [2] it was > 50.1 µM.
As to `CC[C@H]1CN2CC[C@H]1C[C@@H]2CNCc1ccc(OC(F)(F)F)cc1`, the negative-log IC50 (pIC50) with Plasmodium falciparum is reported as 6.073. In addition, the IC50 was 0.806 µM with Plasmodium falciparum, 19.8 µM in assay [1] and 31.9 µM in assay [2].
Taken in the same sequence, the figures for `c1ccc(-c2nc3c(c(NCc4n[nH]c5c4CCC5)n2)CCNC3)cc1` were 6.219, 0.902 µM, 46.1 µM and 25.7 µM.
As to `COc1ccc2[nH]c(CNc3cc(C4CCNCC4)nc(C)n3)cc2c1`, in the assay on Plasmodium falciparum, the negative-log IC50 (pIC50) stood at 5.758. For the same compound, the values for the IC50 (with Plasmodium falciparum; in assay [1]; in assay [2]) were 1.83 µM, 12.4 µM and 14.3 µM, respectively.
Regarding `OC1(CN2CCC(Oc3cccc(C(F)(F)F)c3)CC2)CCNC1` (centres undefined), in the assay on Plasmodium falciparum, the pIC50 was 6.152 and the IC50 was 0.69 µM. Besides, the IC50 in assay [2] is > 50.1 µM.
For `O=C(CCN1CCCC1c1cccc2c1OCCO2)N1CCCCC1` (centres undefined), the negative logarithm of the IC50 (pIC50) in the assay on Plasmodium falciparum is 5.987. Moreover, the IC50 is 0.845 µM in the assay with Plasmodium falciparum, > 50.1 µM in assay [1] and 25.2 µM in assay [2].
The compound `c1cncc(-c2ccc3c(c2)CCC32CCNCC2)c1` registered a pIC50 in the assay on Plasmodium falciparum of 5.939. The IC50 with Plasmodium falciparum was 1.28 µM; in assay [1] it was 40.9 µM; in assay [2] it was 46.2 µM.
Taken in the same sequence, the figures for `CCc1cnc(N)nc1NC(C)c1ccc(C)c(C)c1` (centres undefined) were 6.042, 0.893 µM, 44.1 µM and 23.8 µM.
As for `CC(Nc1nc(-c2ccccc2)nc2c1CCNCC2)c1cccnc1` (centres undefined), the pIC50 in the assay on Plasmodium falciparum stood at 5.884. The IC50 with Plasmodium falciparum is 1.46 µM; in assay [1], 28 µM; in assay [2], 27.6 µM.
In the same order, the values of `CS(=O)(=O)CCCNC1(c2cccc(Cl)c2)CCCC1` are 6.268, 0.87 µM, > 50.1 µM and > 50.1 µM.
Take `Cn1ccnc1CN(Cc1ccccn1)Cc1ccccc1Cl.O=C(O)CC(O)(CC(=O)O)C(=O)O`: in the assay on Plasmodium falciparum, the negative logarithm of the IC50 (pIC50) was 6.114 and the IC50 is 0.725 µM. Moreover, in assay [2], the IC50 was 45.5 µM.
Compound `CCOc1ccc(CN2CCCC(c3cc4ncccc4[nH]3)C2)cc1` (centres undefined) displayed a pIC50 in the assay on Plasmodium falciparum of 6.15. Moreover, the IC50 in the assay on Plasmodium falciparum is 0.842 µM; in assay [1], 24.8 µM; in assay [2] it was 33.6 µM.
In the same order, the values of `CCc1[nH]c2c(CNc3cc(C)nc(NC)n3)cc(C)cc2c1C` are 6.096, 0.75 µM, 40.3 µM and 35.7 µM.
Taken in the same sequence, the figures for `Cc1nc(-c2cc(Cl)c3c(c2)CC(CN)O3)c[nH]1` (centres undefined) were 5.986, 1.39 µM, 8.33 µM and 2.58 µM.
Taken in the same sequence, the figures for `Cc1ccc(CNCc2cccc3cccnc23)c(OC2CCOC2)c1` (centres undefined) were 6.31, 0.619 µM, > 50.1 µM and > 50.1 µM.
The compound `CC[C@H]1CN2CC[C@H]1C[C@@H]2CNC(=O)Nc1cc(OC)cc(OC)c1` yielded a negative logarithm of the IC50 (pIC50) in the assay with Plasmodium falciparum of 6.272. Also, the figures for the IC50 (in the assay on Plasmodium falciparum; in assay [1]; in assay [2]) were 0.762 µM, > 50.1 µM and > 50.1 µM, respectively.
For the compound `Cc1ccc(CN2CC[C@H]3[C@H](CC(Cn4cccn4)N3C)C2)s1.O=C(O)C(F)(F)F.O=C(O)C(F)(F)F.O=C(O)C(F)(F)F` (some centres undefined), in the assay on Plasmodium falciparum, the pIC50 is listed as 6.142 and the IC50 was 0.814 µM.
Regarding `CCC1CN(CC(=O)NCCN2CCCCC2)c2ccccc2S1` (centres undefined), in the assay on Plasmodium falciparum, the pIC50 came out at 6.107 and the IC50 is 0.937 µM.
In the same order, the values of `O=C(Cn1ccc2ccc(Br)cc21)NC[C@@H]1CCCN2CCCC[C@H]12` are 5.89 and 1.28 µM.
In the assay on Plasmodium falciparum, `CN(CCO)C[C@@H]1CN(C2CCN(c3ccccc3Cl)CC2)C[C@@H]1CO` had a pIC50 of 6.408 and an IC50 of 0.316 µM.
In the assay with Plasmodium falciparum, `CN(Cc1ccsc1)c1nc(-c2ccccn2)nc2c1CCNCC2` gave a pIC50 of 6.41 and an IC50 of 0.399 µM.

(Values after ChEMBL document CHEMBL3988442, “University of Dundee, Small-Polar-MMV Screening Library” (2021).)
